Experimental data taken from EP0534396B1, “2-Substituted indane-2-carboxyalkyl derivatives useful as inhibitors of enkephalinase and ace” (MERRELL PHARMACEUTICALS INC., priority 1991, dated 1993).

Tests used:
[1] = target: T1, Enkephalinase (Rattus norvegicus, UniProt P07861); test: Enkephalinase inhibition, fluorometric enzyme assay; format: biochemical; details: enzyme partially purified from rat kidney; 50mM HEPES buffer (pH 7.4); 12 µM substrate dansyl-D-AlaGly(p-nitro)PheGly; 25°C
T1 construct: The enzyme is extracted from the microvilli fraction by using Triton X-100; from tissue; host or cells: rat kidney (microvilli fraction)
T1 sequence (P07861 1-750): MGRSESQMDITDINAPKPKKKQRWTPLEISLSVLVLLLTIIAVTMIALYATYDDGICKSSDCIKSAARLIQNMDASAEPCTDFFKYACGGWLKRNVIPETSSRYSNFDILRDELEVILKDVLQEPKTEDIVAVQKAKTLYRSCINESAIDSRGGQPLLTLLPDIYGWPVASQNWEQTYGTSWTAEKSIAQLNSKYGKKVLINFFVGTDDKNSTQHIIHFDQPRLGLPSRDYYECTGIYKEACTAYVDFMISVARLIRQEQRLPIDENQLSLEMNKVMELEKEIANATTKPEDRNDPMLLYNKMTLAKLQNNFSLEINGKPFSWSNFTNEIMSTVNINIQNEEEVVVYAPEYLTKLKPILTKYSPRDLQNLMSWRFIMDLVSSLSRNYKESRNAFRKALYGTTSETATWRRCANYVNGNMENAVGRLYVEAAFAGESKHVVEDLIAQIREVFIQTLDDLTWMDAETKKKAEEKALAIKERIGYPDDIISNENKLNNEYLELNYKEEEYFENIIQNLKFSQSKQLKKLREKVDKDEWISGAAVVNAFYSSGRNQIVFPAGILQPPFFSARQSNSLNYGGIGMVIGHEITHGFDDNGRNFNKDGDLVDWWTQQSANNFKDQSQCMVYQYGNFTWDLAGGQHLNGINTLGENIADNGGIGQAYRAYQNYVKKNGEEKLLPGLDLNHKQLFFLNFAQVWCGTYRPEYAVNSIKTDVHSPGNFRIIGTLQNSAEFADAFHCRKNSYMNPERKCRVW
Description: Enkephalinase is partially purified from rat kidney. The enzyme is extracted from the microvilli fraction by using Triton X-100 according to the method of Malfroy and Schwartz [J.Biol.Chem. 259, 14365-14370 (1984)] or by using a proteolytic treatment according to the method of Almenoff and Orlowski [Biochem. 22, 590-599 (1983)]. The enzyme is further purified by anion exchange chromatography (Mono Q™ column, Pharmacia) using a Pharmacia FPLC system. The enzyme activity may be measured by the fluorometric methods of Florentin et al. [Anal.Biochem. 141, 62-69 (1984)] or of Almenoff and Orlowski [J.Neurochemistry 42, 151-157 (1984)]. The enzyme is assayed in 50mM HEPES buffer (pH 7.4) in a 3.0 mL reaction volume containing 12 µM of the substrate dansyl-D-AlaGly(p-nitro)PheGly (Km=40µM) at 25°C. The substrate (and inhibitor) is added from a concentrated stock solution in DMSO (up to 0.1 mL DMSO final volume). The enzyme in a small volume (approximately 0.1 µg of FPLC purified protein) is added to initiate the reaction and the rate of fluorescense increase is recorded continuously using a fluorometer (excitation at 339nm, emission at 562nm).

[2] = target: ACE (Homo sapiens, UniProt P12821); test: ACE inhibition, spectrophotometric enzyme assay; format: biochemical; details: spectrophotometric substrate of Holmquist et al.; buffer system of Ryan
Description: The enzymatic activity of ACE is monitored using the spectrophotometric substrate described by Holmquist et al. [Anal.Biochem. 95, 540-548 (1979)] and the buffer system described by Ryan [Methods of Enzymatic Analysis, 3rd ed., H. U. Bergmeyer, editor; vol. V, Verlag Chemie, Weinheim, 1983, pp. 20-34].

Sequence of ACE (P12821 30-1306, species assumed): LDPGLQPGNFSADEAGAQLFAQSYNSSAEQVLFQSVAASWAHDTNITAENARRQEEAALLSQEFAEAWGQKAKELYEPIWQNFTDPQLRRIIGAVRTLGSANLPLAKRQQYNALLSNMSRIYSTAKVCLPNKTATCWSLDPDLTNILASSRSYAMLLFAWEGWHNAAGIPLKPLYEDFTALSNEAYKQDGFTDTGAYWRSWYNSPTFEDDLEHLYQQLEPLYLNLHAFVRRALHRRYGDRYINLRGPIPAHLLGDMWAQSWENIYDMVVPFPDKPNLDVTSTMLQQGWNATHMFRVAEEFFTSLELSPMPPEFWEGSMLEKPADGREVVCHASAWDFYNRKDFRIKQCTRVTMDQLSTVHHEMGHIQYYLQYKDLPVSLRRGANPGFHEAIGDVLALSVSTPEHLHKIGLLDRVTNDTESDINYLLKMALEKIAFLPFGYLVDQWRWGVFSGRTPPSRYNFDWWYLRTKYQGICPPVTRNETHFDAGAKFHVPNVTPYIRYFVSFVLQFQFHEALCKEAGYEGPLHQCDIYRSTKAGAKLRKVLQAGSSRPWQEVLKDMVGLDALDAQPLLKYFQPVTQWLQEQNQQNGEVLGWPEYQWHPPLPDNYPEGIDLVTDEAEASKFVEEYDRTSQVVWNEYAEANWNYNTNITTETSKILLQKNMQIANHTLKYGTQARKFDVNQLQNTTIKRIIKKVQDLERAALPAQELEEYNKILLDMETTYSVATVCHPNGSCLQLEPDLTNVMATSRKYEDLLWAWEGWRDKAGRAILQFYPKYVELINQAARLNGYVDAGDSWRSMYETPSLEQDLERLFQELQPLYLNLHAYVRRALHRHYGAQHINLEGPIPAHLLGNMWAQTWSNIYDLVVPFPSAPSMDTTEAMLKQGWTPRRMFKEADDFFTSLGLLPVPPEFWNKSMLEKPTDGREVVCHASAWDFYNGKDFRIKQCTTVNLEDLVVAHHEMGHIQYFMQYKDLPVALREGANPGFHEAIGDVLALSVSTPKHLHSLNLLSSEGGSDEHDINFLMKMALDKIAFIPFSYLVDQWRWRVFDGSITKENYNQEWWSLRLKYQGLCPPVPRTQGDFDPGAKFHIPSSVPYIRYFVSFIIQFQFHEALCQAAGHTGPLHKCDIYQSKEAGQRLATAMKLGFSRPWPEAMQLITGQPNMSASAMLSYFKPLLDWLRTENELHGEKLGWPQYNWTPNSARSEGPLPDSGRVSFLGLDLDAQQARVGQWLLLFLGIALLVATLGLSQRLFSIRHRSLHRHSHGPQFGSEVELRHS

| Ki [1] [nM] | Ki [2] [nM] | SMILES |
| --- | --- | --- |
| 0.4 | – | O=C(O)CC1(C(=O)N[C@H]2Cc3ccccc3[C@H]3CCC[C@@H](C(=O)O)N3C2=O)CCCC1 (relative stereo) [100,137, [4S-[4α, 7α(R*), 12bβ]]-7-[(1-Carboxymethyl-cyclopent-1-yl)carbonylamino]-1,2,3,4,6,7,8,12b-octahydro-6-oxopyrido[2,1-a][2]benzazepine-4-carboxylic acid] |
| < 0.2 | < 104 | O=C(O)CC1(C(=O)N[C@H]2Cc3ccccc3[C@H]3CCC[C@@H](C(=O)O)N3C2=O)Cc2ccccc2C1 (relative stereo) [102,353, [4S-[4α, 7α(R*), 12bβ]]-7-[(2-Carboxymethyl-indan-2-yl)carbonylamino]-1,2,3,4,6,7,8,12b-octahydro-6-oxopyrido[2,1-a][2]benzazepine-4-carboxylic acid] |
